Laboratory results published in patent US20250002507A1, “7,8-DIHYDRO-5H-1,6-NAPHTHYRIDINE DERIVATIVES AS POSITIVE ALLOSTERIC MODULATORS OF THE MUSCARINIC ACETYLCHOLINE RECEPTOR M4 FOR TREATING NEUROLOGICAL AND PSYCHIATRIC DISORDERS” (Vanderbilt University, priority 2021, published 2025).

Target: T1, Human M4 (Homo sapiens, UniProt P08173)
T1 construct: expressed in transfected cells
T1 sequence (P08173 1-479): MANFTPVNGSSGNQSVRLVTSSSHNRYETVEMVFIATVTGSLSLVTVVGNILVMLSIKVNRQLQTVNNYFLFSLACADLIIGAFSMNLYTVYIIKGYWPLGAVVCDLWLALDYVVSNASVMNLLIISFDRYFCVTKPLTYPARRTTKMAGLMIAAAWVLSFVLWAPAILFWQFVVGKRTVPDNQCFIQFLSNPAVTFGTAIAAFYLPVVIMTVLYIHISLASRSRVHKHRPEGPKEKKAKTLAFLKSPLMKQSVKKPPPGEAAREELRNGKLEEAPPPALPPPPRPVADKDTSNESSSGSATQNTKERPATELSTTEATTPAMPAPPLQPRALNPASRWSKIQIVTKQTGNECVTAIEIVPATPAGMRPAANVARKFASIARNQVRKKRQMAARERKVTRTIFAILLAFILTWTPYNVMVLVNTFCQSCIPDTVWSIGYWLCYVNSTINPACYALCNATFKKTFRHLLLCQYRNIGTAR
Assay: mAChR M4 cell-based functional assay (calcium flux, potentiation of EC20 acetylcholine response), hM4-Gqi5 CHO-K1 cells
Conditions: for Emax / Emax at 30 µM: CHO-K1; for EC50: hM4-Gqi5 CHO-K1 cells, calcium flux, PAM of EC20 acetylcholine, read-out: Human M4 EC50; for Emax at 30 µM: % ACh maximum at 30 μM, human M4, read-out: Emax
Method: Human and rat M4 cDNAs, along with the chimeric G protein Gqi5, were transfected into Chinese hamster ovary (CHO-K1) cells purchased from the American Type Culture Collection using Lipofectamine2000. hM4-Gqi5 cells were grown in Ham's F-12 medium containing 10% heat-inactivated fetal bovine serum (FBS), 20 mM HEPES, 50 μg/mL G418 sulfate, and 500 μg/mL Hygromycin B. rM4-Gqi5 cells were grown in DMEM containing 10% heat-inactivated FBS, 20 mM HEPES, 400 μg/mL G418 sulfate, and 500 μg/mL Hygromycin B.
For high throughput measurement of agonist-evoked increases in intracellular calcium, CHO-K1 cells stably expressing muscarinic receptors were plated in growth medium lacking G418 and hygromycin at 15,000 cells/20 μL/well in Greiner 384-well black-walled, tissue culture (TC)-treated, clear-bottom plates (VWR). Cells were incubated overnight at 37° C. and 5% CO2. The next day, cells were washed using an ELX 405 (BioTek) with assay buffer; the final volume was then aspirated to 20 μL. Next, 20 μL of a 2.3 μM stock of Fluo-4/acetoxymethyl ester (Invitrogen, Carlsbad, CA), prepared as a 2.3 mM stock in DMSO and mixed in a 1:1 ratio with 10% (w/v) Pluronic F-127 and diluted in assay buffer, was added to the wells and the cell plates were incubated for 50 min at 37° C. and 5% CO2. Dye was removed by washing with the ELX 405 and the final volume was aspirated to 20 μL. Compound master plates were formatted in an 11 point concentration-response curve (CRC) format (1:3 dilutions) in 100% DMSO with a starting concentration of 10 mM using a BRAVO liquid handler (Agilent). Test compound CRCs were then transferred to daughter plates (240 nL) using the Echo acoustic plate reformatter (Labcyte, Sunnyvale, CA) and then diluted into assay buffer (40 μL) to a 2× stock using a Thermo Fisher Combi (Thermo Fisher Scientific, Waltham, MA).
Calcium flux was measured using the Functional Drug Screening System (FDSS) 6000 or 7000 (Hamamatsu Corporation, Tokyo, Japan) as an increase in the fluorescent static ratio. Compounds were applied to cells (20 μL, 2×) using the automated system of the FDSS at 2-4 seconds into the protocol and the data were collected at 1 Hz. At 144 seconds, 10 μL of an EC20 concentration of the muscarinic receptor agonist acetylcholine was added (5×), followed by the addition of 12 μL of an EC80 concentration of acetylcholine at the 230 second time point (5×). Agonist activity was analyzed as a concentration-dependent increase in calcium mobilization upon compound addition. Positive allosteric modulator activity was analyzed as a concentration-dependent increase in the EC20 acetylcholine response. Antagonist activity was analyzed as a concentration-dependent decrease in the EC80 acetylcholine response. Concentration-response curves were generated using a four-parameter logistical equation in XLFit curve fitting software (IDBS, Bridgewater, NJ) for Excel (Microsoft, Redmond, WA) or Prism (GraphPad Software, Inc., San Diego, CA).
Compounds were synthesized as described above. Activity (EC50 and Emax) was determined in the mAChR M4 cell-based functional assay as described above and the data are shown in Tables 2-4. The compound number corresponds to the compound numbers used in Table 1.

Structure (SMILES) | Emax | EC50 | Emax at 30 µM
Cc1c(N2CCc3ncccc3C2)nn2cnnc2c1C [Compound 1, 6-(7,8-dimethyl-[1,2,4]triazolo[4,3-b]pyridazin-6-yl)-7,8-dihydro-5H-1,6-naphthyridine] | 97% | 3.97 µM | 
Cc1c(N2CCc3ncc(-c4ccn(C)n4)cc3C2)nn2cnnc2c1C [Compound 2, 6-(7,8-dimethyl-[1,2,4]triazolo[4,3-b]pyridazin-6-yl)-3-(1-methylpyrazol-3-yl)-7,8-dihydro-5H-1,6-naphthyridine] |  | 0.628 µM | 102%
Cc1c(N2CCc3ncc(C#N)cc3C2)nn2cnnc2c1C [Compound 3, 6-(7,8-Dimethyl-[1,2,4]triazolo[4,3-b]pyridazin-6-yl)-7,8-dihydro-5H-1,6-naphthyridine-3-carbonitrile] | 69% | 4.51 µM | 
Cc1c(N2CCc3ncc(Oc4ccc(F)cc4)cc3C2)nn2cnnc2c1C [Compound 4, 6-(7,8-dimethyl-[1,2,4]triazolo[4,3-b]pyridazin-6-yl)-3-(4-fluorophenoxy)-7,8-dihydro-5H-1,6-naphthyridine] |  | 0.322 µM | 87%
Cc1cnc2c(c1)CN(c1nn3cnnc3c(C)c1C)CC2 [Compound 5, 6-(7,8-Dimethyl-[1,2,4]triazolo[4,3-b]pyridazin-6-yl)-3-methyl-7,8-dihydro-5H-1,6-naphthyridine] | 95% | 0.23 µM | 
Cc1c(N2CCc3ncc(Oc4ccc(OC(F)(F)F)c(F)c4)cc3C2)nn2cnnc2c1C [Compound 6, 6-(7,8-dimethyl-[1,2,4]triazolo[4,3-b]pyridazin-6-yl)-3-[3-fluoro-4-(trifluoromethoxy)phenoxy]-7,8-dihydro-5H-1,6-naphthyridine] |  | 3.62 µM | 33%
Cc1c(N2CCc3ncc(Oc4ccc5c(c4)OCCO5)cc3C2)nn2cnnc2c1C [Compound 7, 3-(2,3-dihydro-1,4-benzodioxin-6-yloxy)-6-(7,8-dimethyl-[1,2,4]triazolo[4,3-b]pyridazin-6-yl)-7,8-dihydro-5H-1,6-naphthyridine] |  | 0.295 µM | 63%
Cc1c(N2CCc3ncc(Oc4ccc5c(cnn5C)c4)cc3C2)nn2cnnc2c1C [Compound 8, 6-(7,8-dimethyl-[1,2,4]triazolo[4,3-b]pyridazin-6-yl)-3-(1-methylindazol-5-yl)oxy-7,8-dihydro-5H-1,6-naphthyridine] |  | 0.2 µM | 68%
Cc1c(N2CCc3ncc(-c4cncs4)cc3C2)nn2cnnc2c1C [Compound 9, 5-[6-(7,8-dimethyl-[1,2,4]triazolo[4,3-b]pyridazin-6-yl)-7,8-dihydro-5H-1,6-naphthyridin-3-yl]thiazole] |  | 0.0943 µM | 79%
Cc1noc(C)c1-c1cnc2c(c1)CN(c1nn3cnnc3c(C)c1C)CC2 [Compound 10, 4-[6-(7,8-dimethyl-[1,2,4]triazolo[4,3-b]pyridazin-6-yl)-7,8-dihydro-5H-1,6-naphthyridin-3-yl]-3,5-dimethyl-isoxazole] |  | 0.212 µM | 78%
COc1ccc(Oc2cnc3c(c2)CN(c2nn4cnnc4c(C)c2C)CC3)cc1Cl [Compound 11, 3-(3-chloro-4-methoxy-phenoxy)-6-(7,8-dimethyl-[1,2,4]triazolo[4,3-b]pyridazin-6-yl)-7,8-dihydro-5H-1,6-naphthyridine] |  | 1.04 µM | 57%
COc1ccc(Oc2cnc3c(c2)CN(c2nn4cnnc4c(C)c2C)CC3)cc1 [Compound 12, 6-(7,8-Dimethyl-[1,2,4]triazolo[4,3-b]pyridazin-6-yl)-3-(4-methoxyphenoxy)-7,8-dihydro-5H-1,6-naphthyridine] |  | 0.191 µM | 76%
Cc1c(N2CCc3ncc(-c4ccnn4C(C)C)cc3C2)nn2cnnc2c1C [Compound 13, 6-(7,8-Dimethyl-[1,2,4]triazolo[4,3-b]pyridazin-6-yl)-3-(2-isopropylpyrazol-3-yl)-7,8-dihydro-5H-1,6-naphthyridine] | 62% | 0.285 µM | 
Cc1c(N2CCc3ncc(NC(=O)C4CC4)cc3C2)nn2cnnc2c1C [Compound 14, N-[6-(7,8-dimethyl-[1,2,4]triazolo[4,3-b]pyridazin-6-yl)-7,8-dihydro-5H-1,6-naphthyridin-3-yl]cyclopropanecarboxamide] |  | 1.15 µM | 76%
Cc1c(N2CCc3ncc(NC(=O)C4COC4)cc3C2)nn2cnnc2c1C [Compound 15, N-[6-(7,8-Dimethyl-[1,2,4]triazolo[4,3-b]pyridazin-6-yl)-7,8-dihydro-5H-1,6-naphthyridin-3-yl]oxetane-3-carboxamide] | 68% | 5.87 µM | 
Cc1c(N2CCc3ncc(N4CCCCC4)cc3C2)nn2cnnc2c1C [Compound 16, 6-(7,8-dimethyl-[1,2,4]triazolo[4,3-b]pyridazin-6-yl)-3-(1-piperidyl)-7,8-dihydro-5H-1,6-naphthyridine] |  | 0.789 µM | 89%
Cc1c(N2CCc3ncc(NCc4ccc(C(C)(C)O)cc4)cc3C2)nn2cnnc2c1C [Compound 17, 2-[4-[[[6-(7,8-dimethyl-[1,2,4]triazolo[4,3-b]pyridazin-6-yl)-7,8-dihydro-5H-1,6-naphthyridin-3-yl]amino]methyl]phenyl]propan-2-ol] |  | 0.936 µM | 66%
Cc1c(N2CCc3ncc(NCc4cccc(F)c4)cc3C2)nn2cnnc2c1C [Compound 18, 6-(7,8-dimethyl-[1,2,4]triazolo[4,3-b]pyridazin-6-yl)-N-[(3-fluorophenyl)methyl]-7,8-dihydro-5H-1,6-naphthyridin-3-amine] |  | 0.798 µM | 47%
Cc1c(N2CCc3ncc(-c4ccns4)cc3C2)nn2cnnc2c1C [Compound 19, 5-[6-(7,8-dimethyl-[1,2,4]triazolo[4,3-b]pyridazin-6-yl)-7,8-dihydro-5H-1,6-naphthyridin-3-yl]isothiazole] |  | 0.0493 µM | 106%
Cc1c(N2CCc3ncc(-c4cnn(C5CCCCC5)c4)cc3C2)nn2cnnc2c1C [Compound 20, 3-(1-cyclohexylpyrazol-4-yl)-6-(7,8-dimethyl-[1,2,4]triazolo[4,3-b]pyridazin-6-yl)-7,8-dihydro-5H-1,6-naphthyridine] |  | 0.331 µM | 71%
Cc1c(N2CCc3ncc(-c4cnn(CC5CC5)c4)cc3C2)nn2cnnc2c1C [Compound 21, 3-[1-(cyclopropylmethyl)pyrazol-4-yl]-6-(7,8-dimethyl-[1,2,4]triazolo[4,3-b]pyridazin-6-yl)-7,8-dihydro-5H-1,6-naphthyridine] |  | 0.162 µM | 82%
Cc1nn(C)cc1-c1cnc2c(c1)CN(c1nn3cnnc3c(C)c1C)CC2 [Compound 22, 3-(1,3-dimethylpyrazol-4-yl)-6-(7,8-dimethyl-[1,2,4]triazolo[4,3-b]pyridazin-6-yl)-7,8-dihydro-5H-1,6-naphthyridine] |  | 0.146 µM | 93%
Cc1nn(C)c(C)c1-c1cnc2c(c1)CN(c1nn3cnnc3c(C)c1C)CC2 [Compound 23, 6-(7,8-dimethyl-[1,2,4]triazolo[4,3-b]pyridazin-6-yl)-3-(1,3,5-trimethylpyrazol-4-yl)-7,8-dihydro-5H-1,6-naphthyridine] |  | 0.149 µM | 94%
